Test results published in patent publication US11746100B2 (GLOBAL BLOOD THERAPEUTICS, INC., priority 2020, dated 2023).

Molecular target: T1, human ferroportin (Homo sapiens, UniProt Q9NP59)
T1 construct: luciferase reporter (read with the Nano-Glo Luciferase Assay System); expressed in transfected cells; host or cells: CHO cells, stably transfected, expression induced with doxycycline
T1 sequence (Q9NP59 1-571): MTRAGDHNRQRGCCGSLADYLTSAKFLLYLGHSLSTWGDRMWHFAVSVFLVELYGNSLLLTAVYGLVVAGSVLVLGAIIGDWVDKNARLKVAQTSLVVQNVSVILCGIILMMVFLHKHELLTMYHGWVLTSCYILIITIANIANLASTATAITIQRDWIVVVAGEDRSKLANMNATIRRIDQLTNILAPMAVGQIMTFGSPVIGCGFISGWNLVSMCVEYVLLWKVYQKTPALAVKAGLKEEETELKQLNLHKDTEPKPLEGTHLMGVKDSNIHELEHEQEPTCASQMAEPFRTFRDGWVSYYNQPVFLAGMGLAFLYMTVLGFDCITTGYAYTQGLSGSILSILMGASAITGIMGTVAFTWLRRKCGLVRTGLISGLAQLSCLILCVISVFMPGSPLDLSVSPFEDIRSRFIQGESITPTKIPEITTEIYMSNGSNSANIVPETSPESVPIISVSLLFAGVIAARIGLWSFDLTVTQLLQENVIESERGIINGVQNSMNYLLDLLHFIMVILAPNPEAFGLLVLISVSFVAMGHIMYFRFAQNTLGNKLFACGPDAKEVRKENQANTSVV
Assay: Biological in-vitro ferroportin internalization assay (luciferase reporter)
Format: cell-based
Conditions: average pEC50; stably-transfected CHO cell line expressing human ferroportin tagged to a luciferase reporter; 6 h incubation with test compound
In short: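 Stably transfected CHO cells expressing luciferase-tagged human ferroportin, plated 24 h with ferric ammonium citrate and induced with doxycycline for 24 h. Compounds incubated 6 h, then luciferase activity measured by Nano-Glo; average pEC50 reported.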

Row | pEC50 | Compound
1 | 8.0 | CO[C@H]1CCN(CCOc2ccnc(-c3nc4c(c(N(C)CC(=O)NC(C)(C)C)n3)CCC4)c2)C1 [Compound 464, N-tert-butyl-2-{[2-(4-{2-[(3S)-3-methoxypyrrolidin-1-yl]ethoxy}pyridin-2-yl)-5H,6H,7H-cyclopenta[d]pyrimidin-4-yl](methyl)amino}acetamide]
2 | 8.3 | CN(CC(=O)NC(C)(C)C)c1nc(-c2cc(OCCn3ccnc3)ccn2)nc2c1CCC2 [Compound 465, N-tert-butyl-2-[(2-{4-[2-(1H-imidazol-1-yl)ethoxy]pyridin-2-yl}-5H,6H,7H-cyclopenta[d]pyrimidin-4-yl)(methyl)amino]acetamide]
3 | 7.9 | CN(CC(=O)NC(C)(C)C)c1nc(-c2cc(OCCn3cnnn3)ccn2)nc2c1CCC2 [Compound 466, N-tert-butyl-2-[methyl(2-{4-[2-(1H-1,2,3,4-tetrazol-1-yl)ethoxy]pyridin-2-yl}-5H,6H,7H-cyclopenta[d]pyrimidin-4-yl)amino]acetamide]
4 | 8.3 | CCOc1ccnc(-c2nc3c(c(N(C)CC(=O)NC(C)(C)C)n2)CCC3)c1 [Compound 467, N-tert-butyl-2-{[2-(4-ethoxypyridin-2-yl)-5H,6H,7H-cyclopenta[d]pyrimidin-4-yl](methyl)amino}acetamide]
5 | 8.5 | CN(CC(=O)NC(C)(C)C)c1nc(-c2cc(OCCOc3cccnn3)ccn2)nc2c1CCC2 [Compound 468, N-tert-butyl-2-[methyl(2-{4-[2-(pyridazin-3-yloxy)ethoxy]pyridin-2-yl}-5H,6H,7H-cyclopenta[d]pyrimidin-4-yl)amino]acetamide]
6 | 7.2 | CN(C)CCOc1ccnc(-c2nc3c(c(N(CC(=O)NC(C)(C)C)CC(F)(F)F)n2)CCC3)c1 [Compound 470, N-tert-butyl-2-[(2-{4-[2-(dimethylamino)ethoxy]pyridin-2-yl}-5H,6H,7H-cyclopenta[d]pyrimidin-4-yl)(2,2,2-trifluoroethyl)amino]acetamide]
7 | 7.4 | COc1ccnc(-c2nc3c(c(N(C)CC(=O)N4CC[C@@H](O)C4)n2)CCC3)c1 [Compound 471, 1-[(3R)-3-hydroxypyrrolidin-1-yl]-2-{[2-(4-methoxypyridin-2-yl)-5H,6H,7H-cyclopenta[d]pyrimidin-4-yl](methyl)amino}ethan-1-one]
8 | 7.4 | COc1ccnc(-c2nc3c(c(N(C)CC(=O)N4CC[C@H](O)C4)n2)CCC3)c1 [Compound 472, 1-[(3S)-3-hydroxypyrrolidin-1-yl]-2-{[2-(4-methoxypyridin-2-yl)-5H,6H,7H-cyclopenta[d]pyrimidin-4-yl](methyl)amino}ethan-1-one]
9 | 8.3 | CN(CC(=O)NC(C)(C)C)c1nc(-c2cc(OCCN3CC[C@@H](F)C3)ccn2)nc2c1CCC2 [Compound 473, N-tert-butyl-2-{[2-(4-{2-[(3R)-3-fluoropyrrolidin-1-yl]ethoxy}pyridin-2-yl)-5H,6H,7H-cyclopenta[d]pyrimidin-4-yl](methyl)amino}acetamide]
10 | 8.3 | CN(CC(=O)NC(C)(C)C)c1nc(-c2cc(OCCN3CC[C@H](F)C3)ccn2)nc2c1CCC2 [Compound 474, N-tert-butyl-2-{[2-(4-{2-[(3S)-3-fluoropyrrolidin-1-yl]ethoxy}pyridin-2-yl)-5H,6H,7H-cyclopenta[d]pyrimidin-4-yl](methyl)amino}acetamide]
11 | 7.6 | CN(C)CCCc1ccnc(-c2nc3c(c(N(C)CC(=O)NC(C)(C)C)n2)CCC3)c1 [Compound 475, N-tert-butyl-2-[(2-{4-[3-(dimethylamino)propyl]pyridin-2-yl}-5H,6H,7H-cyclopenta[d]pyrimidin-4-yl)(methyl)amino]acetamide]

Row | Compound | pEC50
12 | CCC(O)(CC)COc1ccnc(-c2nc3c(c(N(C)CC(=O)N[C@@H]4CCC[C@@H]4O)n2)CCC3)c1 [Compound 469, 2-({2-[4-(2-ethyl-2-hydroxybutoxy)pyridin-2-yl]-5H,6H,7H-cyclopenta[d]pyrimidin-4-yl}(methyl)amino)-N-[(1R,2S)-2-hydroxycyclopentyl]acetamidede] | 8.3
